Here are results for four compounds from ChEMBL document CHEMBL1201862, “PubChem BioAssay data set” (2004).

Active and inactive are the calls of the source.

In one assay the target is Hexokinase (Trypanosoma brucei, UniProt Q38C41). Description: Confirmation assay for inhibitors of Trypanosoma brucei hexokinase 1-Analogue-first series. [Related pubchem assays (depositor defined):AID1430, AID1632, AID2516, AID2560, AID2579, AID2600, AID449725, AID492951]. The assay is classed as functional.
Assay [1] has as its target Glucose-6-phosphate 1-dehydrogenase (Homo sapiens, UniProt P11413). Description: human G6PD enzyme inhibitors, dose response, selectivity assay for P. falciparum G6PD inhibitor project, biochemical, fluorescence (AID 504792). The assay is classed as functional.
Assay [2] is described as follows: Fluorescence-based cell-based high throughput dose response assay for inhibitors of the interaction of nucleotide-binding oligomerization domain containing 2 (NOD2) and the receptor-interacting serine-threonine kinase 2 (RIPK2). Type of assay: functional. As to conditions: Homo sapiens.
Another assay addresses Beta Lactamase (Pseudomonas aeruginosa, UniProt Q932Y6). Description: beta-lactamase reporter inhibitor potency, dose response, artefact control for NOD2-RIPK2 interaction inhibitor project, BLA reporter cells, FRET fluorescence (AID 651552). The assay is classed as functional, cell-based.
The next assay concerns the target Integrin alpha-L (Mus musculus, UniProt P24063). Description: modulators of CD8 T cell-vesicle binding, dose response, powder samples, mouse 2C CD8+ cells (AID 504565). The assay is classed as functional.
In a further assay the test system is T-cell. Description: inhibitors of CD8+ T cell–vesicle binding, dose response, mouse 2C CD8+ T cells, flow cytometry (AID 485284). The assay is classed as functional. (In general: In flow cytometry, cells or beads pass a laser one at a time.)
Assay [3] addresses Tyrosine-protein phosphatase non-receptor type 12 (Homo sapiens, UniProt Q05209). Description: SAR Selectivity Analysis of small molecule inhibitors of PEST using pCAP in a fluorescence assay. [Related pubchem assays (depositor defined):AID1779, AID1784, AID2135]. Type of assay: functional.
Assay [4] has as its target T1, Tyrosine-protein phosphatase non-receptor type 22 (Homo sapiens, UniProt Q9Y2R2). Description: SAR LYP1 Fluorescent Assay using OMFP substrate for In Vitro dose response studies - Set 3. [Related pubchem assays (depositor defined):AID1779, AID1784, AID2140, AID2686]. Type of assay: functional.
For assay [5], the target named is T1, Tyrosine-protein phosphatase non-receptor type 22. In words: LYP (PTPN22) phosphatase inhibitor potency, SAR follow-up, biochemical, pCAP fluorogenic substrate, fluorescence, set 3 (AID 449727). Type of assay: functional.
The next assay deals with Ion channel NompC (Danio rerio, UniProt Q7T1G6). Description: Dose response cell-based high-throughput screening assay for agonists of the transient receptor potential channel N1 (TRPN1). [Related pubchem assays (depositor defined):AID1424, AID1448]. Type of assay: functional.
For a further assay, the target named is T2, Mucolipin-3 (Homo sapiens, UniProt Q8TDD5).
T2 sequence (Q8TDD5 whole entry): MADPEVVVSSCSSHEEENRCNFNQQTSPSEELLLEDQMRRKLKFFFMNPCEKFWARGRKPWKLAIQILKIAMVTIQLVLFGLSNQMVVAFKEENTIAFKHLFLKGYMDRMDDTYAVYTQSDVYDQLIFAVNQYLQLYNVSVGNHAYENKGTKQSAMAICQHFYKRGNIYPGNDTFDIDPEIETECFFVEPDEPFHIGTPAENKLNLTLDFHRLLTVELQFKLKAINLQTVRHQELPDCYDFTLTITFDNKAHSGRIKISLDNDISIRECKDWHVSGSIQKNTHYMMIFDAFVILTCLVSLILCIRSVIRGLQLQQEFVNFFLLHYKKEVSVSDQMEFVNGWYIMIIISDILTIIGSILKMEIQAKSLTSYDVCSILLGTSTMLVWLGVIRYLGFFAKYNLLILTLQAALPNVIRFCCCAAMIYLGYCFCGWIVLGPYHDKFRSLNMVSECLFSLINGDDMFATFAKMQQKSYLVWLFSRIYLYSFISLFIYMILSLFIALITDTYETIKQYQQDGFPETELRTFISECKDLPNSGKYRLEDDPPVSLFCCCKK
In words: Fluorescence counterscreen assay for […] agonists: dose response cell-based high-throughput screening assay to identify agonists of the transient receptor potential channel ML3 (TRPML3). [Related pubchem assays: 1424, 1448 ]. The assay is classed as functional. For orientation: Counterscreens check selectivity or assay interference.

Assay [6] deals with Eukaryotic translation initiation factor 4E (Mus musculus, UniProt P63073). In words: eIF4E–eIF4G protein interaction inhibitors, dose response, biochemical, TR-FRET (AID 855).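 Also: potency for disrupting eIF4E binding to eIF4GI seen as loss of FRET.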 The assay is classed as functional. In general terms: Time-resolved FRET reads energy transfer from a long-lived donor to a nearby acceptor.
For the next assay, the target named is Troponin, cardiac muscle (Homo sapiens, UniProt P19429+P45379+P63316). In words: Fluorescence-based biochemical high throughput dose response assay for activators of the calcium sensitivity of cardiac Regulated Thin Filaments (RTF). [Related pubchem assays (depositor defined):AID493008, AID493018, AID504382, AID504383]. Type of assay: protein-complex assay.

A short description of assay [7]: HeLa cell cytotoxicity, dose response, cytotoxicity control for MgcRacGAP inhibitor project (AID 624300). Type of assay: functional.
The target in assay [8] is T3, Rac GTPase-activating protein 1 (Homo sapiens, UniProt Q9H0H5).
T3 sequence (Q9H0H5 whole entry): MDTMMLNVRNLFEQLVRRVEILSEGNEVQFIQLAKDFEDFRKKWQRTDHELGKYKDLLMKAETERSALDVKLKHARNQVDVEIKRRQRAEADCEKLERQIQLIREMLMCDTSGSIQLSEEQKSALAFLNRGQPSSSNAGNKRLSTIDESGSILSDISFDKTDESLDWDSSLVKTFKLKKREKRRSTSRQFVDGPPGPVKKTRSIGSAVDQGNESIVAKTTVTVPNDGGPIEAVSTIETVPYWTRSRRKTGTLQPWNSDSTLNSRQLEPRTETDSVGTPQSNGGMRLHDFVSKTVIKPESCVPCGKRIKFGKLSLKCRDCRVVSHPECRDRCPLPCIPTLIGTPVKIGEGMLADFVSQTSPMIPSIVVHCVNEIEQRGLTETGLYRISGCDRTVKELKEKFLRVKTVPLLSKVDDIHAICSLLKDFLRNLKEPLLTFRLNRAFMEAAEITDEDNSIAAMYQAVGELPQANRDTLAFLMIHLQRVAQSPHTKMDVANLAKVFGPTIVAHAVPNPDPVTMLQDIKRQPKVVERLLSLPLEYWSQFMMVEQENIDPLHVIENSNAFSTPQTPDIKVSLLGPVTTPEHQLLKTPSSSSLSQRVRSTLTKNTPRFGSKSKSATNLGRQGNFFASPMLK
In words: MgcRacGAP GTPase-activating activity inhibitors, confirmation, biochemical, ADP Hunter fluorescence, primary and confirmatory (AID 624330). The assay is classed as functional.

As a reminder, the IC50 is the concentration that gives 50% inhibition. The term EC50 denotes the midpoint of the concentration-response curve. As a reminder, the CC50 is the concentration that lowers cell viability or growth by half.

T1 sequence (Q9Y2R2 whole entry): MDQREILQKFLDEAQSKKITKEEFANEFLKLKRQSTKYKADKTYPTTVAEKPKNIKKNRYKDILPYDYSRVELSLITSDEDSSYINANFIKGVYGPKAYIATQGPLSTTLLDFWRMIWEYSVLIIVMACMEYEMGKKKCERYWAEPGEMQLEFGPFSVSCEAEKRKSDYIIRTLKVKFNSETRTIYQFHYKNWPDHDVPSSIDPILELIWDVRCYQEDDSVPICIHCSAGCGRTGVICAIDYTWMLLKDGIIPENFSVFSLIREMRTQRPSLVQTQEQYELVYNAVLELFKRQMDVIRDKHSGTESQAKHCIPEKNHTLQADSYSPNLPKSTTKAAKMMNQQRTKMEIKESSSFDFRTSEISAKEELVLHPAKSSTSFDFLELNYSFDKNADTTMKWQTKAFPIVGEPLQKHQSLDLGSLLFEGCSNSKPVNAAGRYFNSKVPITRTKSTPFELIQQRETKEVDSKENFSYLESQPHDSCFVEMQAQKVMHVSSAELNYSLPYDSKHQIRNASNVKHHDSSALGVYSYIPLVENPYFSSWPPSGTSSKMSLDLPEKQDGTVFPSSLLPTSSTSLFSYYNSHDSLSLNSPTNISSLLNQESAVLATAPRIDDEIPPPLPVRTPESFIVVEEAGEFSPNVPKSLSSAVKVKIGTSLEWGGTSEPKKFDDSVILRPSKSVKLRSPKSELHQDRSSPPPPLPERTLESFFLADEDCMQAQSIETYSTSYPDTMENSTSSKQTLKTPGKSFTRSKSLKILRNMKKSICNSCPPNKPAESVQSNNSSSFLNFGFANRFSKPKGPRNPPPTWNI
Chain of Eukaryotic translation initiation factor 4E (P63073 whole entry): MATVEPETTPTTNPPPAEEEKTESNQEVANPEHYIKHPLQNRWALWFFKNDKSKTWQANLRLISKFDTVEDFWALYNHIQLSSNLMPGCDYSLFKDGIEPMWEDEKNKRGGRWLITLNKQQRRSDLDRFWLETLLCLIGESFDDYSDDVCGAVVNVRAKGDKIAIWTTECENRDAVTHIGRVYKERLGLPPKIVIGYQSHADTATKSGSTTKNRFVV
Chain of Ion channel NompC (Q7T1G6 whole entry): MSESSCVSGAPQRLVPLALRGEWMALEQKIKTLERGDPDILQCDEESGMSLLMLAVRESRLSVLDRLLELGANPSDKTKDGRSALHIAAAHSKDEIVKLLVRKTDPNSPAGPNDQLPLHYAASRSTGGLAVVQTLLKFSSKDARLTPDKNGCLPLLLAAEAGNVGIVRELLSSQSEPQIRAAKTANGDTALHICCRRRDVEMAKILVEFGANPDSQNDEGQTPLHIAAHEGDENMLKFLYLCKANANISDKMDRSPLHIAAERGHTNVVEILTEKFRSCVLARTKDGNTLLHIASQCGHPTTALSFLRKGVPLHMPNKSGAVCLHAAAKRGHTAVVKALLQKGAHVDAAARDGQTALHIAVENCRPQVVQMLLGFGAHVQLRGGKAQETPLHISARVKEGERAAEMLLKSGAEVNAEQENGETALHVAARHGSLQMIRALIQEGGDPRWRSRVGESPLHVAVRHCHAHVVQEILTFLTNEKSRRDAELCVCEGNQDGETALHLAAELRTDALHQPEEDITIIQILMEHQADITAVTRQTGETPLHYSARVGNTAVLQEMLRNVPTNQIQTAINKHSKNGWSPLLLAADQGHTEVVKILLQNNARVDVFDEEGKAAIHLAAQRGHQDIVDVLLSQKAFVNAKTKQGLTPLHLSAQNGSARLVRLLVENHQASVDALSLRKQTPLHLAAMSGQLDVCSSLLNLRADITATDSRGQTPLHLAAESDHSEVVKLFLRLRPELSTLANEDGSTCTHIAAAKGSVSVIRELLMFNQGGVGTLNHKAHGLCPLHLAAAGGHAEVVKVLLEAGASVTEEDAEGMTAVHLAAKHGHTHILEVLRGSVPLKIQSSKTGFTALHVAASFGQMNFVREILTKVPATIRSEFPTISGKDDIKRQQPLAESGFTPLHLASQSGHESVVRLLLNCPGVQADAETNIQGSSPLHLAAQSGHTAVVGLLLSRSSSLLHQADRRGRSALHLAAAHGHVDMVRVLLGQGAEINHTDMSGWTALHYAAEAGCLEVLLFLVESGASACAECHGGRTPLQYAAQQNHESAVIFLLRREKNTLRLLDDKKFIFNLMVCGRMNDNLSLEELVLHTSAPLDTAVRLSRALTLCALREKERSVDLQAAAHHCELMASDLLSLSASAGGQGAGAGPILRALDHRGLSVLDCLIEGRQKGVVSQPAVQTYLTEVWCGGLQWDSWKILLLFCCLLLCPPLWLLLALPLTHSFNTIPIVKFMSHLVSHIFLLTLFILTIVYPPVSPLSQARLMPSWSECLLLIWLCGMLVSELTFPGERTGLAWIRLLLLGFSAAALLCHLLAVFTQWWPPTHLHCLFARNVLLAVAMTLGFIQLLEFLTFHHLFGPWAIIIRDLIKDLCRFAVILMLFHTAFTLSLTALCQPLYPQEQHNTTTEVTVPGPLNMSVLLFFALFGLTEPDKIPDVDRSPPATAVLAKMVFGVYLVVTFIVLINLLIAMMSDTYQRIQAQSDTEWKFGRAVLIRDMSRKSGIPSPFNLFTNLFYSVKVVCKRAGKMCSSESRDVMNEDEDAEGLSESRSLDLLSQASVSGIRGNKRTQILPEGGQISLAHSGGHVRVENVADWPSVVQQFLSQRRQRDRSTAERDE
Chain of Glucose-6-phosphate 1-dehydrogenase (P11413 whole entry, the tested form may be a part): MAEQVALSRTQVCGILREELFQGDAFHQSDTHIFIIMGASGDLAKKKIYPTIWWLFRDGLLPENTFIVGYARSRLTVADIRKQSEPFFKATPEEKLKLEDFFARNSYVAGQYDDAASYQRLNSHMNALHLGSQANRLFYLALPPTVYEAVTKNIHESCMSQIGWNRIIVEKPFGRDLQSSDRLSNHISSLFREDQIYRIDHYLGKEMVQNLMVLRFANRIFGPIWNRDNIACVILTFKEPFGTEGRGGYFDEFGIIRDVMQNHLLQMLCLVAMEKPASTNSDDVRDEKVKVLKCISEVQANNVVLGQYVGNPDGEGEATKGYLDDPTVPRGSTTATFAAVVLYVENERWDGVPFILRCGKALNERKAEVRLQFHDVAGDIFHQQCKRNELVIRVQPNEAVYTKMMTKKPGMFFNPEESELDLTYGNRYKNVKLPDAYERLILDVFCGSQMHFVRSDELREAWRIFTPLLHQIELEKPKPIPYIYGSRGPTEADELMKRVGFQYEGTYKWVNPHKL
Chain of Beta Lactamase (Q932Y6 whole entry): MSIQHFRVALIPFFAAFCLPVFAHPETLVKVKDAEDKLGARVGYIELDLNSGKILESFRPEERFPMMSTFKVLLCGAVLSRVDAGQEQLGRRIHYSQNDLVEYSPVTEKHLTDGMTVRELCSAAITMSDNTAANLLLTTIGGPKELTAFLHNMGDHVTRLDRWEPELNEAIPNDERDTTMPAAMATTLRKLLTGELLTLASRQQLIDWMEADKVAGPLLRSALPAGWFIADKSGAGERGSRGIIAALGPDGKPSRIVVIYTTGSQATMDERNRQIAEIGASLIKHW
Chain of Tyrosine-protein phosphatase non-receptor type 12 (Q05209 whole entry): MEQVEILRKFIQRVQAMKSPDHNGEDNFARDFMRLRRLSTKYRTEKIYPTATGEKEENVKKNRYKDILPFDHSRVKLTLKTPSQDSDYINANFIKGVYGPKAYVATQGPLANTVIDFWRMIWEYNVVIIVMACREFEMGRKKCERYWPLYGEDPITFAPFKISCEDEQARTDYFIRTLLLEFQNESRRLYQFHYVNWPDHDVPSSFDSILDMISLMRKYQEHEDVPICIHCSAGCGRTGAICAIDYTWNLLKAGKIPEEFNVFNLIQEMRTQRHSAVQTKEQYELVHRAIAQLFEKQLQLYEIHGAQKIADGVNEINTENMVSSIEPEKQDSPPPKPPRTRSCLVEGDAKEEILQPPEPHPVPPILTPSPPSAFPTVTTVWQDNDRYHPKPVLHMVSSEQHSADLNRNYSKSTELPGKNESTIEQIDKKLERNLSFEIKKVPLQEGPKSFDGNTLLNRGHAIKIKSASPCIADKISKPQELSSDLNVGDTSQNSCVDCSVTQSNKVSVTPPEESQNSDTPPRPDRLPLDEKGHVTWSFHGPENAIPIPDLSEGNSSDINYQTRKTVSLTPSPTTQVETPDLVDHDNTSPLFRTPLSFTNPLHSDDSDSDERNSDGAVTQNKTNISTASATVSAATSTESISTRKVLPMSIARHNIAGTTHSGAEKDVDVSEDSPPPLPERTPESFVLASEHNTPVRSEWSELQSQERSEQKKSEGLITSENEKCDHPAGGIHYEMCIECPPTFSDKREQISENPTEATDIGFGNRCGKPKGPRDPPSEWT
Chain of Hexokinase (Q38C41 whole entry): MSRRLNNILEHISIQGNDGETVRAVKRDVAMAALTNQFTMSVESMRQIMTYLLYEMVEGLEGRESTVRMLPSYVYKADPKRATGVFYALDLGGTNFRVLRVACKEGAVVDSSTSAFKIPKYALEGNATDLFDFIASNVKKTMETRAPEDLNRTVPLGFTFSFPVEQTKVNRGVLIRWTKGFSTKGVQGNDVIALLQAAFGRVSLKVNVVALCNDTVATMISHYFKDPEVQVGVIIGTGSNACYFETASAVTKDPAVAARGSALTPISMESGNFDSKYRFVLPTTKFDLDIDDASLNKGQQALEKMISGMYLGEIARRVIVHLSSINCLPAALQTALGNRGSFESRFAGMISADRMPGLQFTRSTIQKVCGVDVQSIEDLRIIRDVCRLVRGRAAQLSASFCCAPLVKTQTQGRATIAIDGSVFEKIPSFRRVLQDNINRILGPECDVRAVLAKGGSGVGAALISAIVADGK

For the compound `Cc1ccc(NC(=O)Cn2sc3ccccc3c2=O)cc1`, the IC50 at Hexokinase was 5.18 µM (active); in assay [1], 15.1 µM (active); in assay [2], 5.7 µM (active); on Beta Lactamase, 17.7 µM (inactive).
Take `CCOC(=O)C1CCCN(S(=O)(=O)c2ccc(F)c(C(=O)Nc3ccc(F)c(F)c3)c2)C1` (stereo not given): the half-maximal effective concentration (EC50) on Integrin alpha-L is 19.3 µM (active); in the assay on T-cell it was 0.202 µM (active).
Take `CCOC(=O)C1=C(C)N=c2sc(=Cc3ccc(OCC(=O)O)cc3)c(=O)n2C1c1ccc(OC(C)C)cc1` (stereo not given): the IC50 was 3.85 µM (active) in assay [3], 45.1 µM (active) in assay [4] and 25.7 µM (active) in [5].
As for `COc1cc(/C=C(\C#N)c2nc3ccccc3[nH]2)cc(OC)c1O`, the concentration for a half-maximal effect (EC50) on Ion channel NompC is 3.62 µM (active); on Mucolipin-3, 8.88 µM (active); on Troponin, cardiac muscle it was 4.89 µM (active). Moreover, the figures for the IC50 in assay [6] and in assay [8] were 50 µM (inactive) and 20 µM (active), respectively. The CC50 in [7] was 100 µM (active).
